Results taken from patent US6974801B2, “Inhibitors and methods of use thereof” (The Trustees of Dartmounth College, priority 2002, dated 2005).
Like-named read-outs stand apart in the source and are kept apart here.

Tests used:
[1] = tested on: NO production induced by INF-γ in mouse macrophages; assay: Inhibition of NO production induced by IFN-γ in mouse macrophages (Griess reaction); assay type: cell-based
Procedure: The procedure for determining IC50 on NO production induced by INF-γ in mouse macrophages is as follows. Macrophages were harvested from female mice injected intraperitoneally four days previously with 4% thioglycollate. These cells were seeded in 96-well tissue culture plates and incubated with 4 ng/mL INF-γ in the presence or absence of inhibitory test compounds. After 48 hours NO production, measured as […] by the Griess reaction, was determined. This method is described fully by Ding et al. (1990) and Bogdan and Ding, (1992).

[2] = tested on: NO production induced by INF-γ in mouse macrophages; conditions: previously reported (Honda et al.); read-out: IC50 (level); cited from earlier work
[3] = target: T1, peroxisome proliferator-activated receptor γ (PPARγ) (Homo sapiens, UniProt P37231); conditions: Wang et al., 2000; cited from earlier work
T1 sequence (P37231 1-505): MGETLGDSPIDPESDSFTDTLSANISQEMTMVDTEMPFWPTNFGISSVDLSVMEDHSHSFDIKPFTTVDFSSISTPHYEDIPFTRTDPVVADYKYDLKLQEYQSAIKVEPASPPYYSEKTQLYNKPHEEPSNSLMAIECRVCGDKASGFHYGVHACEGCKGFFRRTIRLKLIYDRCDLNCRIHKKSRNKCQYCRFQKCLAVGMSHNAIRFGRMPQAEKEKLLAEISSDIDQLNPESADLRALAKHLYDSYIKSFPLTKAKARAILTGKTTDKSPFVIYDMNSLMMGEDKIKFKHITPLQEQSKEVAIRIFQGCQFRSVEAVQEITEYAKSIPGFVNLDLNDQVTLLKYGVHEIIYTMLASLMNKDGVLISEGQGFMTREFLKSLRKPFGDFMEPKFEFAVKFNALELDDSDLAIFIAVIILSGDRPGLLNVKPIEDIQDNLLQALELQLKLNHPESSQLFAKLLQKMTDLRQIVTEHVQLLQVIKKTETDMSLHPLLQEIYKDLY

[4] = tested on: human tumor cell lines, mouse 3T3-L1 fibroblasts, mouse macrophages; conditions: cell culture; previously reported (Suh et al., 1999); cited from earlier work
[5] = Mus musculus, Macrophage; Table 2; NO production induced by IFN-γ, 48 h; tested 0.01 pM-1 μM (10-fold dilutions); average of several separate experiments
[6] = Mus musculus, Macrophage; Table 1; NO production induced by IFN-γ, 48 h; tested 0.01 pM-1 μM (10-fold dilutions); average of several separate experiments
[7] = SAR on substituents at C-17, Tables 1-3
[8] = Mus musculus, Macrophage, 48 h, Table 1; NO production induced by IFN-γ; tested 0.01 pM-1 μM (10-fold dilutions); average of several separate experiments

CCCc1nccn1C(=O)[C@]12CCC(C)(C)CC1C1C(=O)C=C3[C@@]4(C)C=C(C#N)C(=O)C(C)(C)[C@@H]4CC[C@@]3(C)[C@]1(C)CC2 (stereo partly shown) [Compound 12]
IC50 [1, 5]: 0.02 nM

CC1(C)CC[C@]2(C#N)CC[C@]3(C)[C@H](C(=O)C=C4[C@@]5(C)C=C(C#N)C(=O)C(C)(C)[C@@H]5CC[C@]43C)[C@@H]2C1 [Compound 1, 2-cyano-3,12-dioxooleana-1,9(11)-dien-28-onitrile]
IC50 [1, 6]: 0.0035 nM | potency compared with CDDO (SAR statement) [1, 7]: much more potent

CCc1nccn1C(=O)[C@]12CCC(C)(C)CC1C1C(=O)C=C3[C@@]4(C)C=C(C#N)C(=O)C(C)(C)[C@@H]4CC[C@@]3(C)[C@]1(C)CC2 (stereo partly shown) [Compound 11]
IC50 [1, 5]: 0.1 nM

CC1(C)CC[C@]2(C(=O)O)CC[C@]3(C)C(=CC[C@@H]4[C@@]5(C)CC[C@H](O)C(C)(C)[C@@H]5CC[C@]43C)[C@@H]2C1 [Oleanolic acid (OA), Oleanolic acid, reference compound]
IC50 [1, 8]: > 40000 nM | IC50 ([1]; Mus musculus, Macrophage, 48 h, Table 2; NO production induced by IFN-γ; tested 0.01 pM-1 μM (10-fold dilutions); average of several separate experiments): > 40000 nM

COC(=O)[C@]12CCC(C)(C)C[C@H]1[C@H]1C(=O)C=C3[C@@]4(C)C=C(C#N)C(=O)C(C)(C)[C@@H]4CC[C@@]3(C)[C@]1(C)CC2 [CDDO methyl ester]
IC50 [2]: ~0.1 nM

CC1(C)CC[C@]2(C(=O)O)CC[C@]3(C)[C@H](C(=O)C=C4[C@@]5(C)C=C(C#N)C(=O)C(C)(C)[C@@H]5CC[C@]43C)[C@@H]2C1 [CDDO, 2-cyano-3,12-dioxooleana-1,9(11)-dien-28-oic acid]
IC50 [2]: ~0.1 nM | IC50 [1, 8]: 0.44 nM | IC50 ([1]; Mus musculus, Macrophage, 48 h, Table 3; NO production induced by IFN-γ; tested 0.01 pM-1 μM (10-fold dilutions); average of several separate experiments): 0.7 nM | ligand for PPARγ [3]: ligand | concentrations at which potencies were found [4]: 10^−6 to 10^−9 M

COC(=O)C12CCC(C)(C)CC1C1C(=O)C=C3C4(C)C=C(C(=O)O)C(=O)C(C)(C)C4CCC3(C)C1(C)CC2 (stereo not shown) [methyl 2-carboxy-3,12-dioxooleana-1,9(11)-dien-28-oate]
IC50 [2]: ~0.1 nM

Cc1cn(C(=O)[C@]23CCC(C)(C)CC2C2C(=O)C=C4[C@@]5(C)C=C(C#N)C(=O)C(C)(C)[C@@H]5CC[C@@]4(C)[C@]2(C)CC3)cn1 (stereo partly shown) [Compound 10, 1-(2-cyano-3,12-dioxooleana-1,9(11)-dien-28-oyl)-4-methylimidazole]
potency compared with CDDO (SAR statement) [1, 7]: greatest potency

CC(=O)OC[C@H]1O[C@@H](OC(=O)[C@]23CCC(C)(C)C[C@H]2[C@H]2C(=O)C=C4[C@@]5(C)C=C(C#N)C(=O)C(C)(C)[C@@H]5CC[C@@]4(C)[C@]2(C)CC3)[C@H](OC(C)=O)C(OC(C)=O)[C@H]1OC(C)=O (stereo partly shown) [Compound 18]
IC50 ([1]; Mus musculus, Macrophage; Table 3; NO production induced by IFN-γ, 48 h; tested 0.01 pM-1 μM (10-fold dilutions); average of several separate experiments): 0.05 nM

C[C@@H]1C[C@H]2[C@@H]3CCC4=CC(=O)C=C[C@]4(C)[C@@]3(F)[C@@H](O)C[C@]2(C)[C@@]1(O)C(=O)CO [Dexamethasone, reference compound]
IC50 [1, 6]: 0.1 nM

Cc1cn(C(=O)[C@]23CCC(C)(C)CC2C2C(=O)C=C4[C@@]5(C)C=C(C#N)C(=O)C(C)(C)[C@@H]5CC[C@@]4(C)[C@]2(C)CC3)c(C)n1 (stereo partly shown) [Compound 13]
IC50 [1, 5]: 0.1 nM

CC1(C)CC[C@]2(C(N)=O)CC[C@]3(C)[C@H](C(=O)C=C4[C@@]5(C)C=C(C#N)C(=O)C(C)(C)[C@@H]5CC[C@]43C)[C@@H]2C1 [Compound 3]
IC50 [1, 6]: 0.098 nM | potency compared with CDDO (SAR statement) [1, 7]: greater potency than CDDO

CC(=O)OC[C@H]1OC(OC(=O)[C@]23CCC(C)(C)CC2C2C(=O)C=C4[C@@]5(C)C=C(C#N)C(=O)C(C)(C)[C@@H]5CC[C@@]4(C)[C@]2(C)CC3)[C@H](OC(C)=O)C(OC(C)=O)[C@@H]1OC(C)=O (stereo partly shown) [Compound 2]
IC50 [1, 6]: 0.07 nM

CC1(C)CC[C@]2(C(=O)n3cnc(Br)c3)CC[C@]3(C)C(C(=O)C=C4[C@@]5(C)C=C(C#N)C(=O)C(C)(C)[C@@H]5CC[C@]43C)C2C1 (stereo partly shown) [Compound 15]
IC50 [1, 5]: 0.03 nM

CC1(C)CC[C@]2(C(=O)n3ccnc3-c3ccccc3)CC[C@]3(C)C(C(=O)C=C4[C@@]5(C)C=C(C#N)C(=O)C(C)(C)[C@@H]5CC[C@]43C)C2C1 (stereo partly shown) [Compound 14]
IC50 [1, 5]: 0.05 nM
